We go through one substance from US20080058426A1, “COMPOSITION AND METHOD FOR TREATING PSORIASIS” (priority 2006, published 2008).

The nature of this data set: Safety of THC in the psoriasis clinical study. As to conditions: human, in vivo. The source says: • Study Duration: 45 days • Population: 10 psoriasis affected subjects • Intervention: THC formulated as a cream with pharmaceutically acceptable carriers applied topically three times a day for 45 days.
The primary objective in this study was to determine the efficacy and safety of the THC cream. The parameters to detect the efficacy and safety of the medication included relief from the characteristic symptoms of psoriasis like itching, erythema, scaling, infiltration, and the extent of clearance of psoriasis lesions.

Consider Tetrahydrocurcuminoids [THC], for which the Toxic side effects result is “devoid of toxic side effects”.
